# Experimental data as given in patent US8691195B2, “Peptide having activity of transforming growth factor and production method therefor” (Caregen Co., Ltd., priority 2009, dated 2014).
# Ends that are not written are not given here.
# Legend:
# tyrosinase = experiment: Tyrosinase activity in α-MSH-treated B16F10 cells (L-DOPA, absorbance at 405 nm); format: cell-based; details: 4 days, FIG. 6
# Procedure: For verifying effects on skin whitening of the peptide synthesized in Example 1 and TGF-β, cells were treated with α-MSH and the inhibition in melanin generation was measured. B16F10 cells (Korean Cell Line Bank) were inoculated in a density of 1×10^5 cells/well and cultured in DMEM for 3 days. After cell adhesion was observed, medium was changed with a fresh medium containing 2% serum. Cells were incubated with each test group for 4 days: (a) no treatment as negative control; (b) 200 μg/ml α-MSH as a positive control; and (c) 200 μg/ml α-MSH plus 1 μg/ml or 10 μg/ml peptide 2. […] Subsequently, cells were harvested and treated with a lysis buffer to extract total proteins. The extracted proteins were quantitated by the BCA (bicinchonic acid) method. For each experiment group, 90 μl of protein solution and 10 μl of L-DOPA (L-3,4-dihydroxyphenylalanine; Sigma) were added and reacted for 30 min at 37° C. The resultants were analyzed to measure their absorbance values at 405 nm for evaluating tyrosinase activities.
# C57BL/6 Mice melanocytes = experiment: Inhibition of melanin generation in α-MSH-treated melanocytes; format: cell-based; details: 200 μg/ml α-MSH alone (positive control), 3 days, FIG. 4
# Procedure: To evaluate reduction of melanin pigment by the peptide 2 synthesized in Example 1, C57BL/6 Mice melanocytes cultured were incubated with α-MSH (melanocyte stimulating hormone; Sigma) and then with the peptide in the determined concentrations to measure inhibition effects on melanin generation. Mice melanocytes were cultured in DMEM (Dulbecco's modified Eagle's media; Sigma) supplemented with 10% FBS (fetal bovine serum; Sigma) at 37° C. under 5% CO2 conditions. Cells were cultured in a 24-well culture plate with a density of 1×10^5 cells/well and their adhesion to the plate was observed. Then, cells were incubated with each test group for 3 days: (a) a solvent as control; (b) 200 μg/ml α-MSH as a positive control; and (c) 200 μg/ml α-MSH plus 1 μg/ml or 10 μg/ml peptide 2. The test materials were prepared in such a manner that each component was dissolved in medium solvent and diluted at an equivalent rate to the aforementioned concentration using a mixed solvent of propylene glycol:ethanol:distilled water (5:3:2). After removing culture medium by centrifugation, melanin contents in each group could be observed with naked eye. […]
# More specifically, cells were washed with PBS (phosphate buffered saline) and treated with 1 N sodium hydroxide. The resultants were analyzed to measure their absorbance values at 400 nm. […]
# [1] = Heat stability: residual activity by MTT assay after storage at 40° C.; format: physicochemical; details: days 0-100, MTT assay, FIG. 3
# Procedure: To evaluate heat stability of the peptide 2 prepared in Example 1, the peptide 2 was dissolved in 50 mM Tris-HCl buffer (pH 8.0) to a concentration of 10 μg/ml. Recombinant TGF-β1 (Sigma) as control was produced from E. coli and dissolved in 50 mM Tris-HCl buffer (pH 8.0) at a concentration of 1 μg/ml. The prepared solutions were introduced into glass vials and kept to stand at 40° C. Afterwards, the solutions were taken on days 0, 1, 10, 25, 50, 75 and 100, and subjected to MTT assay (Scudiero, D. A., et al., Cancer Res., 48: 4827-4833 (1988)) to determine residual activities of the peptide and recombinant TGF-β1 (FIG. 3).
# TRP2 = experiment: RT-PCR of TRP2 mRNA in α-MSH-treated B16F10 melanoma cells; format: cell-based; details: 200 μg/ml α-MSH plus 10 μg/ml peptide, 4 days, FIG. 8
# Procedure: (§1) To more clearly check activities of TGF-mimicking peptide on skin whitening in α-MSH-treated B16F10 melanoma cells, mRNA level of TRP1 (tyrosinase-related protein-1), TRP2 and MITF (microphthalmia-associated transcription factor) was measured using RT-PCR.
# (§2) First, B16F10 cells were plated at a 6-well plate in a density of 1×10^5 cells/well and cultured for 3 days. After cell adhesion was observed, medium was changed with a fresh medium containing 2% serum. Cells were incubated with each test group for 4 days: (a) no treatment as negative control; (b) 200 μg/ml α-MSH as a positive control; and (c) 200 μg/ml α-MSH plus 10 μg/ml peptide 2.
# (§3) Subsequently, mRNA were extracted from cells and RT-PCR was carried out using primers for TRP1, TRP2 and MITF. The primer sequence is as follows: TRP1 F-primer, 5′-[…]-3′ and TRP1 R-primer, 5′-[…]-3′; TRP2 F-primer, 5′-[…]-3′ and TRP2 R-primer, 5′-[…]-3′; and MITF F-primer, 5′-[…]-3′ and MITF R-primer, 5′-[…]-3′.
# B16F10 melanoma cells = experiment: Melanosome changes / cell morphology in α-MSH-treated B16F10 melanoma cells; format: cell-based; details: 200 μg/ml α-MSH plus 10 μg/ml peptide, 4 days, FIG. 7
# Procedure: as §2
# [2] = system: MITF (microphthalmia-associated transcription factor); experiment: RT-PCR of MITF mRNA in α-MSH-treated B16F10 melanoma cells; format: cell-based; details: 200 μg/ml α-MSH plus 10 μg/ml peptide, 4 days, FIG. 8
# Procedure: as §1, §2, §3
# [3] = system: TRP1 (tyrosinase-related protein-1); experiment: RT-PCR of TRP1 mRNA in α-MSH-treated B16F10 melanoma cells; format: cell-based; details: 200 μg/ml α-MSH plus 10 μg/ml peptide, 4 days, FIG. 8
# Procedure: as §1, §2, §3
# fibronectin = experiment: Fibronectin production in NIH3T3 fibroblasts (Fibronectin ELISA kit); format: cell-based; details: NIH3T3, 1 μg/ml or 10 μg/ml, 72 hr, FIG. 10
# Procedure: (§4) NIH3T3 cells cultured for 48 hr were incubated with the peptide of the present invention with a concentration of 1 μg/ml or 10 μg/ml for 72 hr, respectively. The levels of procollagen and fibronectin, indicators to show the improvement in skin wrinkle, were examined. The quantification was performed using Procollagen ELISA kit (Takara, Japan) and Fibronectin ELISA kit (CHEMICON, USA).
# procollagen = experiment: Procollagen production in NIH3T3 fibroblasts (Procollagen ELISA kit); format: cell-based; details: NIH3T3, 1 μg/ml or 10 μg/ml, 72 hr, FIG. 9
# Procedure: as §4
substance,measurement,setting,value
"α-MSH: melanocyte stimulating hormone (Sigma), inducer of melanin generation, positive control (SYSMEHFRWGKPV; ends and bridges not checked; UniProt P01189 138-150, looked up) [reference compound]",tyrosinase activity,tyrosinase; 200 μg/ml α-MSH only,highly elevated level
same,melanin content,C57BL/6 Mice melanocytes,strikingly increased
"recombinant TGF-β1: Recombinant TGF-β1 (Sigma) produced from E. coli, used as control",residual activity over time (heat stability),[1]; 1 μg/ml in 50 mM Tris-HCl buffer (pH 8.0),sharply decreased with the lapse of time
NH2-Gly-Arg-Gly-Asp-Tyr-Ile-Trp-Ser-Leu-Asp-Thr-Gln-OH (H-GRGDYIWSLDTQ-OH) [peptide 2],mRNA level of TRP2,TRP2,inhibit
same,α-MSH-induced melanosomes,B16F10 melanoma cells,eliminated
same,mRNA level of MITF,[2],inhibit
same,mRNA level of TRP1,[3],inhibit
same,level of fibronectin,fibronectin,increase
same,production of procollagen,procollagen,remarkably promote
same,reduction of tyrosinase activity,"tyrosinase; 200 μg/ml α-MSH plus 1 μg/ml or 10 μg/ml peptide, versus α-MSH only",about 30%
same,residual activity over time (heat stability),[1]; 10 μg/ml in 50 mM Tris-HCl buffer (pH 8.0),not to be decreased over time
